Values quoted from earlier work in patent US20030232078A1, “Formulation & dosage form for the controlled delivery of therapeutic agents” (priority 2001, published 2003).

conditions: conventional formulations; well known

Row | absorption in the lower GI tract | SMILES
1 | not absorbed in significant amounts | N[C@@H](Cc1ccc(O)c(O)c1)C(=O)O [L-dopa]
2 | not absorbed in significant amounts | C[C@@](Cc1ccc(O)c(O)c1)(NN)C(=O)O [carbidopa]

Row | SMILES | absorption in the lower GI tract
3 | CS(=O)(=O)Nc1ccc(F)c([C@@H](O)CN)c1.Cl [ABT-232] | not absorbed in significant amounts
